Molecules are shown by their SMILES. Calls of active or inactive are those of the source. The rule behind the calls is not given here. A value given as a limit tells only on which side of the number the result lay.

Serine/threonine-protein kinase mTOR (Homo sapiens), sequence (P42345 2015-2114): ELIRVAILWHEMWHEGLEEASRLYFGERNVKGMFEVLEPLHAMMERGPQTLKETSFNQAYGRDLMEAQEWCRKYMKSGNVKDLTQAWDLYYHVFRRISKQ

The assay has as its target Serine/threonine-protein kinase mTOR (Homo sapiens) (UniProt P42345). Kind of assay: binders of mTOR FRB domain, biophysical, NMR (AID 1648). Conditions: NMR binding to FRB domain, chemical shift.
What is called Kd is a measure of binding affinity in units of concentration. As to `CC12CC[C@H](CC1=O)C2(C)C`, the Kd is > 4 mM (inactive).

Consider `CC(C)=CCc1c(O)cc2occ(-c3ccc4c(c3)OCO4)c(=O)c2c1O`, for which the Kd is > 4 mM (inactive).

`CCOC(=O)c1c(C)cc(O)cc1O`: the Kd is > 4 mM (inactive).

On to `COCC(=O)Nc1c(C(N)=O)oc2ccccc12`, for which the Kd was > 4 mM (inactive).

Consider `CC(=O)N1CN(C(C)=O)CN(C(C)=O)C1`, for which the Kd is > 4 mM (inactive).

Take `COc1ccccc1-c1n[nH]c(=O)o1`: the Kd is > 4 mM (inactive).

For the compound `CN(C)S(=O)(=O)N1CCc2ccccc21`, the Kd is > 4 mM (inactive).

For the compound `CC(=O)c1ccc(N2C(=O)C(C(C)C)NC2=S)cc1` (configuration not stated), the Kd is > 4 mM (inactive).

For the compound `Cc1noc(C)c1C(=O)N1CCC(Cc2ccccc2)CC1`, the Kd was > 4 mM (inactive).

In the case of `CC(=O)NC(=S)Nc1nc2ccccc2n1C(C)=O`, the Kd is > 4 mM (inactive).

As for `O=C(Nc1ccccc1)c1cccc(N2C(=O)CCC2=O)c1`, the Kd was > 4 mM (inactive).

`Cn1ccc(NC(=S)NC2CCCC2)n1`: the Kd was > 4 mM (inactive).

Turning to `CC(=O)Nc1cccc(-c2n[nH]c(=S)n2C)c1`, the Kd was > 4 mM (inactive).

Consider `O=C(O)CNc1ncnc2nc[nH]c12`, for which the Kd is > 4 mM (inactive).

Take `Cc1noc(C)c1C(=O)N1CCN(c2ncccn2)CC1`: the Kd is > 4 mM (inactive).

As to `Cc1ccn(S(=O)(=O)c2ccc(C(C)(C)C)cc2)n1`, the Kd was > 4 mM (inactive).

On to `Nc1nncn1C(=O)c1ccccc1Cl`, for which the Kd is > 4 mM (inactive).

`O=c1[nH]c(O)c(C=NCc2cccs2)c(=O)[nH]1`: the Kd is > 4 mM (inactive).

Consider `CC(=O)NC(=S)Nc1ccc(N(C)C(C)=O)cc1`, for which the Kd was > 4 mM (inactive).

For `Cc1c(CCO)c(=O)n2c([nH]c3ccccc32)c1C#N`, the Kd was > 4 mM (inactive).

For the compound `C=CCN1CC[C@]23c4c5ccc(O)c4OC2C(=O)CC[C@@]3(O)[C@H]1C5` (some centres not stated), the Kd is > 4 mM (inactive).

For `COc1cc(OC)c2c(=O)c(OC)c(-c3ccc(OC)c(OC)c3)oc2c1`, the Kd is > 4 mM (inactive).

Take `O=C(O)C1CSC(c2cc3ccccc3nc2Cl)N1` (configuration not stated): the Kd is > 4 mM (inactive).

In the case of `COC(=O)CC1=Nc2ccccc2NC(=O)C1`, the Kd was > 4 mM (inactive).

With `O=C(O)c1cc(=O)[nH]c2ccccc12`, the Kd was > 4 mM (inactive).

With `CS/C(N)=C\C(C)=O`, the Kd was > 4 mM (inactive).

With `O=C(NCc1cccs1)c1nn2cccnc2c1Cl`, the Kd was > 4 mM (inactive).

Consider `COC(=O)C[C@H]1C(C)(C)C(=O)[C@@H]2CC3C4=CC(=O)O[C@@H](c5ccoc5)[C@]4(C)CCC3C1(C)C2=O` (some centres not stated), for which the Kd is > 4 mM (inactive).

On to `Cc1ccccc1-n1c(N)cc(=O)[nH]c1=S`, for which the Kd is > 4 mM (inactive).

Take `O=S1(=O)CCC(NC(=S)Nc2ccc(O)cc2)C1` (configuration not stated): the Kd is > 4 mM (inactive).

With `CN=C(c1ccc([N+](=O)[O-])cc1)N(C)C`, the Kd is > 4 mM (inactive).

In the case of `COc1cccc(-c2nc3ccc(O)cc3c(=O)o2)c1`, the Kd was > 4 mM (inactive).

As to `CC(=O)c1c(O)cc(O)cc1O`, the Kd is > 4 mM (inactive).

Consider `COc1cc2occc2c2oc(=O)ccc12`, for which the Kd is > 4 mM (inactive).

As to `CC1(C)CC2(C)N(N)C(=O)CN2C(=S)N1` (configuration not stated), the Kd is > 4 mM (inactive).

Take `Cc1cc(C(=O)N2CCCCCC2)cs1`: the Kd is > 4 mM (inactive).

Consider `CC(=O)O[C@]1(C)CC[C@@]23CC1C(C)(C)[C@@H]2CC[C@H]3C`, for which the Kd was > 4 mM (inactive).

For `COc1cc(O)cc(/C=C/c2ccccc2)c1`, the Kd is > 4 mM (inactive).

On to `O=C(O)c1cc(O)c2c(c1)[C@@H]([C@H]1c3cc(C(=O)O)cc(O)c3C(=O)c3c(O[C@H]4O[C@H](CO)[C@@H](O)[C@H](O)[C@H]4O)cccc31)c1cccc(O[C@H]3O[C@H](CO)[C@@H](O)[C@H](O)[C@H]3O)c1C2=O`, for which the Kd was > 4 mM (inactive).

For the compound `O=C(O)C1COc2ccccc2O1` (configuration not stated), the Kd was > 4 mM (inactive).

With `O=c1n(-c2ccccc2)c(=O)n2n1CCCC2`, the Kd was > 4 mM (inactive).

For the compound `Cc1cc2c(=O)n(C)c(SCC(N)=O)nc2s1`, the Kd was > 4 mM (inactive).

For `Cc1cc(C(=O)NCc2cccnc2)cs1`, the Kd was > 4 mM (inactive).

Consider `O=C(CC1SC(=O)NC1=O)Nc1ccccc1` (configuration not stated), for which the Kd is > 4 mM (inactive).

Consider `O=C(NC1=NCCS1)c1ccc([N+](=O)[O-])cc1Cl`, for which the Kd was > 4 mM (inactive).

`CCOC(=O)Cc1cc(=O)n2[nH]c(C)cc2n1`: the Kd is > 4 mM (inactive).

`COc1cccc(NC(=O)c2ncn[nH]2)c1`: the Kd is > 4 mM (inactive).

As to `O=C(Nc1ccc(-c2nnco2)cc1)c1ccccc1`, the Kd is > 4 mM (inactive).

`CNC(=S)NCCN1CCOCC1`: the Kd was > 4 mM (inactive).

Regarding `COC(=O)/C(=C1\OC(=O)C(c2ccccc2)C1=O)c1ccccc1` (configuration not stated), the Kd is > 4 mM (inactive).

For the compound `NC(=O)CS(=O)(=O)c1ccc2ccccc2c1`, the Kd was > 4 mM (inactive).

As to `Cc1ccc(-c2nnc3sc(-c4ccncc4)nn23)cc1`, the Kd was > 4 mM (inactive).

As to `CC(=O)c1c(C)n(O)c2ccc3nonc3c12`, the Kd is > 4 mM (inactive).

For the compound `O=C(/C(=N\O)n1cncn1)c1ccccc1Cl`, the Kd was > 4 mM (inactive).

Turning to `OCc1sccc1-n1cccc1`, the Kd is > 4 mM (inactive).

In the case of `COc1c(O)cc(O)cc1O`, the Kd was > 4 mM (inactive).

In the case of `O=C(c1cccc(-n2cnnn2)c1)N1CCOCC1`, the Kd is > 4 mM (inactive).

For `Cc1cc(NC(=O)CSc2ccnc(=O)[nH]2)no1`, the Kd was > 4 mM (inactive).

As for `Cn1cnc2c1c(=O)[nH]c(=O)n2C`, the Kd is > 4 mM (inactive).

`O=C(O)CCCN1CNC(=S)NC1`: the Kd is > 4 mM (inactive).

On to `Cn1ncc(SCc2ccco2)c(Cl)c1=O`, for which the Kd was > 4 mM (inactive).

Consider `CN(C)C(=O)Oc1cccc(-c2nnco2)c1`, for which the Kd was > 4 mM (inactive).

For `CC1(C)C(=O)C=C[C@@]2(C)C1CC(=O)[C@]1(C)C2CC[C@@]2(C)[C@H](c3ccoc3)OC(=O)[C@H]3O[C@]321` (some centres not stated), the Kd is > 4 mM (inactive).

In the case of `N#CCSc1nnc2ccc3ccccc3n12`, the Kd is > 4 mM (inactive).

`CC(=O)OCC[C@H](C)CCC=C(C)C`: the Kd is > 4 mM (inactive).

Turning to `NC(=O)C1CCN(c2nccc(C(F)(F)F)n2)CC1`, the Kd was > 4 mM (inactive).

In the case of `O=c1c2c(nc3nc(COc4ccccc4)[nH]n13)CCC2`, the Kd was > 4 mM (inactive).

`CCC(/C=C/[C@@H](C)[C@H]1CCC2C3CC=C4C[C@@H](O)CC[C@]4(C)C3CC[C@@]21C)C(C)C` (some centres not stated): the Kd was > 4 mM (inactive).

With `CCn1c(=O)cc(N2CCC3(CC2)OCCO3)[nH]c1=O`, the Kd is > 4 mM (inactive).

As for `CC(=O)Nc1c(C#N)c(C(C)(C)C)cn1C`, the Kd is > 4 mM (inactive).

Consider `O=CN1CCN(C2CC(=O)N(c3ccccc3)C2=O)CC1` (configuration not stated), for which the Kd was > 4 mM (inactive).

For `Cc1cc(NC(=O)c2ocnc2C)no1`, the Kd is > 4 mM (inactive).

As for `NC1=NC(=O)CC(C(=O)Nc2ccccc2)S1` (configuration not stated), the Kd was > 4 mM (inactive).

For the compound `c1ccc(Cn2cccc2)nc1`, the Kd was > 4 mM (inactive).

Consider `N#Cc1cccc(Cn2nnc(-c3ccccc3)n2)c1`, for which the Kd was > 4 mM (inactive).

Take `O=P1(O)c2ccccc2Nc2ccccc21`: the Kd was > 4 mM (inactive).

Consider `CC(=O)Nc1c(C)n(C)n(-c2ccccc2)c1=O`, for which the Kd is > 4 mM (inactive).

As for `NC(=O)c1ccc2c(c1)OCO2`, the Kd is > 4 mM (inactive).

Regarding `COc1cc(OC)c2ccc(=O)oc2c1`, the Kd is > 4 mM (inactive).

In the case of `Cc1cc(SCCF)n2ncnc2n1`, the Kd was > 4 mM (inactive).

In the case of `O=C1NC(=O)C2C3C=CC(O3)C12` (configuration not stated), the Kd was > 4 mM (inactive).

For `OCc1ccc2nsnc2c1`, the Kd is > 4 mM (inactive).

As to `Cc1nnc(SCC(=O)N2CCc3ccccc32)s1`, the Kd was > 4 mM (inactive).

As for `O=C(NC(=S)NCc1cccnc1)c1ccco1`, the Kd was > 4 mM (inactive).

For `Cc1cc(NC(=O)c2ccc3c(c2)OCCO3)no1`, the Kd was > 4 mM (inactive).

In the case of `C/C=C(/C)C(=O)O[C@@H]1Cc2c(ccc3ccc(=O)oc23)OC1(C)C`, the Kd is > 4 mM (inactive).

As for `NC(=O)CN1CCC(c2nc3ccccc3[nH]2)CC1`, the Kd was > 4 mM (inactive).

For the compound `CC(C1OC(C)(C)C(O)C1O)[C@@H]1CC[C@]2(C)C3=CCC4C(C)(C)C(=O)CC[C@]4(C)C3CC[C@@]12C` (some centres not stated), the Kd is > 4 mM (inactive).

For `O=C(O)/C=C(\CC(=O)O)C(=O)O`, the Kd was > 4 mM (inactive).

`CC1=C(C(=O)Nc2ccccc2)SCCO1`: the Kd was > 4 mM (inactive).

Regarding `O=c1ccn(Cc2ccccc2)c(=O)[nH]1`, the Kd is > 4 mM (inactive).

As to `Cn1cc(Cl)c(C(=O)Nc2ccncc2)n1`, the Kd is > 4 mM (inactive).

On to `O=C1NC(=Nc2ccc(O)cc2)S/C1=C/c1ccco1`, for which the Kd is > 4 mM (inactive).

Regarding `O=C(c1ccccc1F)N1CCN(c2ccccc2)CC1`, the Kd was > 4 mM (inactive).

`Cc1nc2sccn2c1C(=O)O`: the Kd is > 4 mM (inactive).

Consider `CCc1cc2c(SCC(=O)O)ncnc2s1`, for which the Kd was > 4 mM (inactive).

Turning to `O=C(Nc1nnc(-c2ccncc2)o1)c1cccs1`, the Kd was > 4 mM (inactive).

As for `S=c1nc(Cc2ccccc2)[nH][nH]1`, the Kd is > 4 mM (inactive).

For the compound `Cc1sc2nc(SC3CCOC3=O)[nH]c(=O)c2c1C` (configuration not stated), the Kd was > 4 mM (inactive).

Regarding `NCc1ccc2c(c1)CCO2`, the Kd is > 4 mM (inactive).

Regarding `CN(C)C(=S)Nc1ccc([N+](=O)[O-])cc1`, the Kd is > 4 mM (inactive).

Consider `O=C1COc2ccccc2C(=O)N1`, for which the Kd is > 4 mM (inactive).

These data come from PubChem BioAssay AID1648 (Sanford-Burnham Center for Chemical Genomics, 2009).
